We go through six compounds from patent US12168929B2, “Quantifying zonal flow in multi-lateral wells via taggants of fluids” (Saudi Arabian Oil Company, priority 2023, dated 2024).

≈ marks a conversion by molar mass, not a printed value.

Data set [1] in a line: Methanol solubility of LR versus non-polar crude oil fractions. It counts as physicochemical. As to conditions: non-polar crude oil fractions showed poor MeOH solubility. The source says: To enhance the detection sensitivity further for LR, the fluorescent non-polar fractions of crude oil coeluted with LR during the chromatography may be removed or partially removed from the resulting effluent mixtures. While the polar components of crude oil can be effectively separated using the gravity column chromatography over silica gel with 100% DCM, the separation of the non-polar crude oil components remains a challenge because of its similar polarity with LR, identified by the Rf value on TLC. Therefore, explored was the second step of purification and isolation of the product by utilizing the solubility difference between LR and the non-polar crude oil components. […] Therefore, in subsequent work, DCM from the resulting effluent was evaporated and then the dark viscous residues were re-dissolved in 1 mL of MeOH followed by sonication for 30 seconds.

Data set [2] is described as follows: Solubility of Lumogen F dyes in organic solvents (toluene). As to conditions: organic solvent or mixture. Format: physicochemical.
For data set [3] the following is noted: cited from earlier work.

In the case of `CC(C)c1cccc(C(C)C)c1N1C(=O)c2cc(Oc3ccccc3)c3c4c(Oc5ccccc5)cc5c6c(cc(Oc7ccccc7)c(c7c(Oc8ccccc8)cc(c2c37)C1=O)c64)C(=O)N(c1c(C(C)C)cccc1C(C)C)C5=O` [LR, 7,18-bis[2,6-di(propan-2-yl)phenyl]-11,14,22,26-tetraphenoxy-7,18-diazaheptacyclo[14.6.2.2^2,5.0^3,12.0^4,9.0^13,23.0^20,24]hexacosa-1(22),2(26),3,5(25),9,11,13,15,20,23-decaene-6,8,17,19-tetrone], in data set [1], the “solubility in methanol (MeOH)” value is “moderately soluble”. In addition, the solubility – broadly, the dissolved amount per volume that the medium holds – in data set [2] was found to be 80000 µg/mL (≈ 74.1 mM). `CCCCC(CC)CN1C(=O)c2ccc(OC)c3c(OC)ccc(c23)C1=O` (centres unmarked) [LV, 2-(2-ethylhexyl)-6,7-dimethoxybenzo[de]isoquinoline-1,3-dione]: the solubility in data set [2] was 10000 µg/mL (≈ 27.1 mM).

As to `CC(C)COC(=O)c1ccc2c3ccc(C#N)c4c(C(=O)OCC(C)C)ccc(c5ccc(C#N)c1c52)c43` [LY, bis(2-methylpropyl) 4,10-dicyanoperylene-3,9-dicarboxylate], the solubility in data set [2] was less than 1000 µg/mL. For `CC[N+](CC)=c1ccc2nc3c(cc(N)c4ccccc43)oc-2c1` [NB, Nile Blue], in data set [3], the “solubility in organic solvents” value is given as “relatively low”. Besides, the solubility in water entry in data set [3] (water) is reported as “highly soluble”. As for `CCN(CC)c1ccc2nc3c4ccccc4c(=O)cc-3oc2c1` [NR, Nile Red], the “solubility in organic solvents such as DCM and toluene” value in data set [3] (DCM, toluene) was “highly soluble”. As for `COc1cc(/C=C/C(=O)CC(=O)/C=C/c2ccc(O)c(OC)c2)ccc1O` [curcumin], the “solubility in organic solvents” value in data set [3] is reported as “soluble”.
